Laboratory results taken from ChEMBL document CHEMBL4715697, “Synthesis and biological activity of benzamide DNA minor groove binders” (2016).

How the values were obtained:
Format in all cases: functional
[1] = tested on: HL-60(TB); experiment: Growth inhibition of human HL-60(TB) cells assessed as cell growth at 100 uM incubated for 48 hrs by sulforhodamine B assay relative to control; conditions: read-out: Activity
[2] = tested on: HCT-15; experiment: Growth inhibition of human HCT-15 cells assessed as cell growth at 1 uM incubated for 48 hrs by sulforhodamine B assay relative to control; conditions: read-out: Activity
[3] = tested on: UO-31; experiment: Growth inhibition of human UO-31 cells assessed as cell growth at 0.1 uM incubated for 48 hrs by sulforhodamine B assay relative to control; conditions: read-out: Activity
[4] = tested on: T47D; experiment: Growth inhibition of human T47D cells assessed as cell growth at 1 uM incubated for 48 hrs by sulforhodamine B assay relative to control; conditions: read-out: Activity
[5] = tested on: HOP-62; experiment: Growth inhibition of human HOP-62 cells assessed as cell growth at 0.1 uM incubated for 48 hrs by sulforhodamine B assay relative to control; conditions: read-out: Activity
[6] = tested on: OVCAR-5; experiment: Growth inhibition of human OVCAR-5 cells assessed as cell growth at 0.1 uM incubated for 48 hrs by sulforhodamine B assay relative to control; conditions: read-out: Activity
[7] = tested on: SK-MEL-5; experiment: Growth inhibition of human SK-MEL-5 cells assessed as cell growth at 0.1 uM incubated for 48 hrs by sulforhodamine B assay relative to control; conditions: read-out: Activity
[8] = tested on: IGROV-1; experiment: Growth inhibition of human IGROV-1 cells assessed as cell growth at 100 uM incubated for 48 hrs by sulforhodamine B assay relative to control; conditions: read-out: Activity
[9] = tested on: KM12; experiment: Growth inhibition of human KM12 cells assessed as cell growth at 0.1 uM incubated for 48 hrs by sulforhodamine B assay relative to control; conditions: read-out: Activity
[10] = tested on: U-251; experiment: Growth inhibition of human U-251 cells assessed as cell growth at 0.1 uM incubated for 48 hrs by sulforhodamine B assay relative to control; conditions: read-out: Activity
[11] = tested on: DU-145; experiment: Growth inhibition of human DU-145 cells assessed as cell growth at 100 uM incubated for 48 hrs by sulforhodamine B assay relative to control; conditions: read-out: Activity
[12] = tested on: IGROV-1; experiment: Growth inhibition of human IGROV-1 cells incubated for 48 hrs by sulforhodamine B assay
[13] = tested on: UO-31; experiment: Growth inhibition of human UO-31 cells incubated for 48 hrs by sulforhodamine B assay
[14] = tested on: OVCAR-8; experiment: Growth inhibition of human OVCAR-8 cells assessed as cell growth at 0.01 uM incubated for 48 hrs by sulforhodamine B assay relative to control; conditions: read-out: Activity
[15] = tested on: BT-549; experiment: Growth inhibition of human BT-549 cells assessed as cell growth at 0.01 uM incubated for 48 hrs by sulforhodamine B assay relative to control; conditions: read-out: Activity
[16] = tested on: HL-60(TB); experiment: Growth inhibition of human HL-60(TB) cells assessed as cell growth at 0.1 uM incubated for 48 hrs by sulforhodamine B assay relative to control; conditions: read-out: Activity
[17] = tested on: SNB-75; experiment: Growth inhibition of human SNB-75 cells assessed as cell growth at 1 uM incubated for 48 hrs by sulforhodamine B assay relative to control; conditions: read-out: Activity
[18] = tested on: HOP-62; experiment: Growth inhibition of human HOP-62 cells assessed as cell growth at 1 uM incubated for 48 hrs by sulforhodamine B assay relative to control; conditions: read-out: Activity
[19] = tested on: MOLT-4; experiment: Growth inhibition of human MOLT-4 cells assessed as cell growth at 100 uM incubated for 48 hrs by sulforhodamine B assay relative to control; conditions: read-out: Activity
[20] = tested on: MDA-MB-468; experiment: Growth inhibition of human MDA-MB-468 cells assessed as cell growth at 0.01 uM incubated for 48 hrs by sulforhodamine B assay relative to control; conditions: read-out: Activity
[21] = tested on: SF-539; experiment: Growth inhibition of human SF-539 cells assessed as cell growth at 100 uM incubated for 48 hrs by sulforhodamine B assay relative to control; conditions: read-out: Activity
[22] = tested on: OVCAR-4; experiment: Growth inhibition of human OVCAR-4 cells incubated for 48 hrs by sulforhodamine B assay
[23] = tested on: SNB-19; experiment: Growth inhibition of human SNB-19 cells assessed as cell growth at 1 uM incubated for 48 hrs by sulforhodamine B assay relative to control; conditions: read-out: Activity
[24] = tested on: IGROV-1; experiment: Growth inhibition of human IGROV-1 cells assessed as cell growth at 0.1 uM incubated for 48 hrs by sulforhodamine B assay relative to control; conditions: read-out: Activity
[25] = tested on: KM12; experiment: Growth inhibition of human KM12 cells assessed as cell growth at 1 uM incubated for 48 hrs by sulforhodamine B assay relative to control; conditions: read-out: Activity
[26] = tested on: MDA-MB-231; experiment: Growth inhibition of human MDA-MB-231 cells assessed as cell growth at 0.01 uM incubated for 48 hrs by sulforhodamine B assay relative to control; conditions: read-out: Activity
[27] = tested on: TK-10; experiment: Growth inhibition of human TK-10 cells assessed as cell growth at 1 uM incubated for 48 hrs by sulforhodamine B assay relative to control; conditions: read-out: Activity
[28] = tested on: NCI-H460; experiment: Growth inhibition of human NCI-H460 cells assessed as cell growth at 0.01 uM incubated for 48 hrs by sulforhodamine B assay relative to control; conditions: read-out: Activity
[29] = tested on: UACC-62; experiment: Growth inhibition of human UACC-62 cells assessed as cell growth at 0.01 uM incubated for 48 hrs by sulforhodamine B assay relative to control; conditions: read-out: Activity
[30] = tested on: COLO 205; experiment: Growth inhibition of human COLO 205 cells assessed as cell growth at 0.01 uM incubated for 48 hrs by sulforhodamine B assay relative to control; conditions: read-out: Activity
[31] = tested on: LOX IMVI; experiment: Growth inhibition of human LOX IMVI cells assessed as cell growth at 0.1 uM incubated for 48 hrs by sulforhodamine B assay relative to control; conditions: read-out: Activity
[32] = tested on: SN12C; experiment: Growth inhibition of human SN12C cells assessed as cell growth at 100 uM incubated for 48 hrs by sulforhodamine B assay relative to control; conditions: read-out: Activity
[33] = tested on: ACHN; experiment: Growth inhibition of human ACHN cells assessed as cell growth at 100 uM incubated for 48 hrs by sulforhodamine B assay relative to control; conditions: read-out: Activity
[34] = tested on: TK-10; experiment: Growth inhibition of human TK-10 cells assessed as cell growth at 0.1 uM incubated for 48 hrs by sulforhodamine B assay relative to control; conditions: read-out: Activity
[35] = tested on: SK-MEL-2; experiment: Growth inhibition of human SK-MEL-2 cells assessed as cell growth at 100 uM incubated for 48 hrs by sulforhodamine B assay relative to control; conditions: read-out: Activity
[36] = tested on: HL-60(TB); experiment: Growth inhibition of human HL-60(TB) cells incubated for 48 hrs by sulforhodamine B assay
[37] = tested on: CCRF-CEM; experiment: Growth inhibition of human CCRF-CEM cells assessed as cell growth at 1 uM incubated for 48 hrs by sulforhodamine B assay relative to control; conditions: read-out: Activity
[38] = read-out: LC50 (the source's name)
[39] = read-out: pLC50 (the source's name) (converted)

Compound: CC(=O)Nc1cc(CO[Si](C)(C)C(C)(C)C)cc(NC(=O)c2ccc(C(=O)Nc3cccc(NC(=O)CCCN(C)C)c3)cc2)c1
- growth at 100 µM [1]: 88%
- growth at 1 µM [2]: 87%
- growth at 0.1 µM [3]: 94%
- growth at 1 µM [4]: 107%
- growth at 0.1 µM [5]: 98%
- growth at 0.1 µM [6]: 93%
- growth at 0.1 µM [7]: 97%
- growth at 100 µM [8]: 75%
- growth at 0.1 µM [9]: 100%
- growth at 0.1 µM [10]: 100%
- growth at 100 µM [11]: 85%
- GI50 ([12]; read-out: GI50): > 75 µM
- CC50 [12, 38]: > 75 µM
- TGI ([12]; read-out: TGI): > 75 µM
- GI50 ([12]; read-out: pGI50 (converted)): > 75.9 µM
- CC50 [12, 39]: > 75.9 µM
- TGI ([12]; read-out: pTGI): > 75.9 µM
- GI50 ([13]; read-out: GI50): > 75 µM
- CC50 [13, 38]: > 75 µM
- TGI ([13]; read-out: TGI): > 75 µM
- GI50 ([13]; read-out: pGI50 (converted)): > 75.9 µM
- CC50 [13, 39]: > 75.9 µM
- TGI ([13]; read-out: pTGI): > 75.9 µM
- growth at 0.01 µM [14]: 102%
- growth at 0.01 µM [15]: 95%
- growth at 0.1 µM [16]: 97%
- growth at 1 µM [17]: 80%
- growth at 1 µM [18]: 97%
- growth at 100 µM [19]: 98%
- growth at 0.01 µM [20]: 93%
- growth at 100 µM [21]: 88%
- GI50 ([22]; read-out: GI50): > 75 µM
- LC50 (concentration killing 50% of cells) ([22]; read-out: LC50): > 75 µM
- TGI ([22]; read-out: TGI): > 75 µM
- GI50 ([22]; read-out: pGI50 (converted)): > 75.9 µM
- LC50 (concentration killing 50% of cells) ([22]; read-out: pLC50 (converted)): > 75.9 µM
- TGI ([22]; read-out: pTGI): > 75.9 µM
- growth at 1 µM [23]: 101%
- growth at 0.1 µM [24]: 103%
- growth at 1 µM [25]: 99%
- growth at 0.01 µM [26]: 102%
- growth at 1 µM [27]: 111%
- growth at 0.01 µM [28]: 102%
- growth at 0.01 µM [29]: 96%
- growth at 0.01 µM [30]: 101%
- growth at 0.1 µM [31]: 94%
- growth at 100 µM [32]: 91%
- growth at 100 µM [33]: 84%
- growth at 0.1 µM [34]: 99%
- growth at 100 µM [35]: 87%
- GI50 ([36]; read-out: GI50): > 75 µM
- LC50 ([36]; read-out: LC50): > 75 µM
- TGI ([36]; read-out: TGI): > 75 µM
- GI50 ([36]; read-out: pGI50 (converted)): > 75.9 µM
- LC50 ([36]; read-out: pLC50 (converted)): > 75.9 µM
- TGI ([36]; read-out: pTGI): > 75.9 µM
- growth at 1 µM [37]: 98%

Compound: CC(=O)Nc1cc(CCl)cc(NC(=O)c2ccc(C(=O)Nc3cccc(NC(=O)CCCN(C)C)c3)cc2)c1
- growth at 100 µM [1]: 90%
- growth at 1 µM [2]: 90%
- growth at 0.1 µM [3]: 97%
- growth at 1 µM [4]: 94%
- growth at 0.1 µM [5]: 104%
- growth at 0.1 µM [6]: 88%
- growth at 0.1 µM [7]: 92%
- growth at 100 µM [8]: 100%
- growth at 0.1 µM [9]: 108%
- growth at 0.1 µM [10]: 94%
- growth at 100 µM [11]: 94%
- GI50 ([12]; read-out: GI50): > 100 µM
- CC50 [12, 38]: > 100 µM
- TGI ([12]; read-out: TGI): > 100 µM
- GI50 ([12]; read-out: pGI50 (converted)): > 100 µM
- CC50 [12, 39]: > 100 µM
- TGI ([12]; read-out: pTGI): > 100 µM
- GI50 ([13]; read-out: GI50): > 100 µM
- CC50 [13, 38]: > 100 µM
- TGI ([13]; read-out: TGI): > 100 µM
- GI50 ([13]; read-out: pGI50 (converted)): > 100 µM
- CC50 [13, 39]: > 100 µM
- TGI ([13]; read-out: pTGI): > 100 µM
- growth at 0.01 µM [14]: 102%
- growth at 0.01 µM [15]: 104%
- growth at 0.1 µM [16]: 93%
- growth at 1 µM [17]: 78%
- growth at 1 µM [18]: 102%
- growth at 100 µM [19]: 99%
- growth at 0.01 µM [20]: 90%
- growth at 100 µM [21]: 112%
- GI50 ([22]; read-out: GI50): > 100 µM
- LC50 (concentration killing 50% of cells) ([22]; read-out: LC50): > 100 µM
- TGI ([22]; read-out: TGI): > 100 µM
- GI50 ([22]; read-out: pGI50 (converted)): > 100 µM
- LC50 (concentration killing 50% of cells) ([22]; read-out: pLC50 (converted)): > 100 µM
- TGI ([22]; read-out: pTGI): > 100 µM
- growth at 1 µM [23]: 104%
- growth at 0.1 µM [24]: 113%
- growth at 1 µM [25]: 107%
- growth at 0.01 µM [26]: 103%
- growth at 1 µM [27]: 102%
- growth at 0.01 µM [28]: 105%
- growth at 0.01 µM [29]: 100%
- growth at 0.01 µM [30]: 112%
- growth at 0.1 µM [31]: 92%
- growth at 100 µM [32]: 102%
- growth at 100 µM [33]: 104%
- growth at 0.1 µM [34]: 106%
- growth at 100 µM [35]: 116%
- GI50 ([36]; read-out: GI50): > 100 µM
- LC50 ([36]; read-out: LC50): > 100 µM
- TGI ([36]; read-out: TGI): > 100 µM
- GI50 ([36]; read-out: pGI50 (converted)): > 100 µM
- LC50 ([36]; read-out: pLC50 (converted)): > 100 µM
- TGI ([36]; read-out: pTGI): > 100 µM
- growth at 1 µM [37]: 107%
